Measurements reported in patent US12186283B2, “Bismuth-thiol compositions and methods of use” (Microbion Corporation, priority 2018, dated 2025).
Converted amounts (≈) assume the structure as drawn. Like-named read-outs stand apart in the source and are kept apart here.

Experiments:
Klebsiella pneumoniae = test: Broth microdilution MIC (Example 12)
Pseudomonas aeruginosa [1] = conditions: P. aeruginosa ATCC 27853, QC organism; cited from earlier work
Pseudomonas aeruginosa [2] = test: Broth microdilution MIC (Example 12)
[3] = system: Burkholderia cepacia complex; test: Checkerboard FIC assay, BisEDT with CF agents (Example 10); assay type: cell-based, Burkholderia spp.; conditions: B. cenocepacia isolate 0548; agent alone, as observed during FIC testing
Escherichia coli = test: Broth microdilution MIC (Example 12)
P. aeruginosa [4] = conditions: P. aeruginosa isolate 103, CLSI QC range in parenthesis, cited from earlier work
[5] = system: Burkholderia cepacia complex; test: Broth microdilution MIC (Example 10); conditions: initial MIC testing
Acinetobacter baumannii = test: Broth microdilution MIC (Example 12)
P. aeruginosa [6] = test: Broth microdilution MIC (Example 10)

Structure (SMILES): NCC[C@H](O)C(=O)N[C@@H]1C[C@H](N)[C@@H](O[C@H]2O[C@H](CN)[C@@H](O)[C@H](O)[C@H]2O)[C@H](O)[C@H]1O[C@H]1O[C@H](CO)[C@@H](O)[C@H](N)[C@H]1O [AMK]
- MIC (Klebsiella pneumoniae; K. pneumoniae ATCC BAA-1705, QC organism): 16 µg/mL (≈ 27.3 µM)
- MIC (Klebsiella pneumoniae; Klebsiella pneumoniae ATCC BAA-1705, ESBL/KPC): 16 µg/mL (≈ 27.3 µM)
- MIC (Klebsiella pneumoniae; Klebsiella pneumoniae CDC 112, KPC): 16 µg/mL (≈ 27.3 µM)
- MIC (Klebsiella pneumoniae; Klebsiella pneumoniae CDC 113, ESBL/KPC): 16 µg/mL (≈ 27.3 µM)
- MIC (Klebsiella pneumoniae; Klebsiella pneumoniae CDC 115, ESBL/KPC): 0.5 µg/mL (≈ 0.854 µM)
- MIC (Klebsiella pneumoniae; Klebsiella pneumoniae CDC 120, ESBL/KPC): 16 µg/mL (≈ 27.3 µM)
- MIC (Klebsiella pneumoniae; Klebsiella pneumoniae CDC 126, ESBL/KPC): 2 µg/mL (≈ 3.42 µM)
- MIC (Klebsiella pneumoniae; Klebsiella pneumoniae CDC 135, ESBL/VIM): 16 µg/mL (≈ 27.3 µM)
- MIC (Klebsiella pneumoniae; Klebsiella pneumoniae CDC 138, ESBL/NDM): >64 µg/mL
- MIC (Klebsiella pneumoniae; Klebsiella pneumoniae CDC 158, ESBL/NDM/OXA): 2 µg/mL (≈ 3.42 µM)
- MIC (Klebsiella pneumoniae; Klebsiella pneumoniae MMX 9029, ESBL): 0.5 µg/mL (≈ 0.854 µM)
- MIC, QC range (Pseudomonas aeruginosa [1]): (1-4) μg/mL
- MIC (Pseudomonas aeruginosa [2]; P. aeruginosa ATCC 27853, QC organism): 2 µg/mL (≈ 3.42 µM)
- MIC (Pseudomonas aeruginosa [2]; Pseudomonas aeruginosa CDC 230, VIM/OXA): >64 µg/mL
- MIC (Pseudomonas aeruginosa [2]; Pseudomonas aeruginosa CDC 231, KPC/OXA): 8 µg/mL (≈ 13.7 µM)
- MIC (Pseudomonas aeruginosa [2]; Pseudomonas aeruginosa CDC 246, NDM/OXA): >64 µg/mL
- MIC (Pseudomonas aeruginosa [2]; Pseudomonas aeruginosa CDC 250, NDM/OXA): >64 µg/mL
- MIC (Pseudomonas aeruginosa [2]; Pseudomonas aeruginosa CDC 356, KPC): 2 µg/mL (≈ 3.42 µM)
- MIC (Pseudomonas aeruginosa [2]; Pseudomonas aeruginosa CDC 439, IMP): >64 µg/mL
- MIC (Pseudomonas aeruginosa [2]; Pseudomonas aeruginosa CDC 444, VIM): >64 µg/mL
- MIC (Pseudomonas aeruginosa [2]; Pseudomonas aeruginosa CDC 457, VIM): 2 µg/mL (≈ 3.42 µM)
- MIC (Pseudomonas aeruginosa [2]; Pseudomonas aeruginosa CDC 516, KPC/AmpC): 2 µg/mL (≈ 3.42 µM)
- MIC (Pseudomonas aeruginosa [2]; Pseudomonas aeruginosa CDC 518, KPC/AmpC): 16 µg/mL (≈ 27.3 µM)
- MIC (Escherichia coli; E. coli ATCC 25922, QC organism): 1 µg/mL (≈ 1.71 µM)
- MIC (Escherichia coli; E. coli ATCC 35218, QC organism): 1 µg/mL (≈ 1.71 µM)
- MIC (Escherichia coli; Escherichia coli ATCC 35218, ESBL): 1 µg/mL (≈ 1.71 µM)
- MIC (Escherichia coli; Escherichia coli ATCC BAA-2471, NDM): 64 µg/mL (≈ 109 µM)
- MIC (Escherichia coli; Escherichia coli CDC 114, ESBL/KPC): 1 µg/mL (≈ 1.71 µM)
- MIC (Escherichia coli; Escherichia coli CDC 118, ESBL/NDM): >64 µg/mL
- MIC (Escherichia coli; Escherichia coli CDC 435, NDM): >64 µg/mL
- MIC (Escherichia coli; Escherichia coli CDC 451, KPC): 4 µg/mL (≈ 6.83 µM)
- MIC (Escherichia coli; Escherichia coli CDC 503, ESBL/NDM): >64 µg/mL
- MIC (Escherichia coli; Escherichia coli MMX 5745, KPC): 0.5 µg/mL (≈ 0.854 µM)
- MIC (Escherichia coli; Escherichia coli MMX 5755, ESBL): 16 µg/mL (≈ 27.3 µM)
- MIC (Escherichia coli; Escherichia coli MMX 5756, ESBL): 64 µg/mL (≈ 109 µM)
- MIC (Escherichia coli; Escherichia coli MMX 5758, ESBL): 1 µg/mL (≈ 1.71 µM)
- MIC, CLSI QC range (P. aeruginosa [4]; Table 24): (1-4) μg/mL
- MIC, CLSI QC range (P. aeruginosa [4]; Table 26): (1-4) μg/mL
- MIC ([5]; B. cenocepacia isolate 0548 (CIP-R)): 256 µg/mL (≈ 437 µM)
- MIC ([5]; B. cenocepacia isolate 1631): 256 µg/mL (≈ 437 µM)
- MIC ([5]; B. cenocepacia isolate 1783): 256 µg/mL (≈ 437 µM)
- MIC ([5]; B. cenocepacia isolate 8555): 256 µg/mL (≈ 437 µM)
- MIC ([5]; B. cepacia isolate 0546): 64 µg/mL (≈ 109 µM)
- MIC ([5]; B. cepacia isolate 1793): 64 µg/mL (≈ 109 µM)
- MIC ([5]; B. cepacia isolate 9040): 8 µg/mL (≈ 13.7 µM)
- MIC ([5]; B. multivorans isolate 5665 (CIP-I)): 256 µg/mL (≈ 437 µM)
- MIC (Acinetobacter baumannii; Acinetobacter baumannii CDC 273, ESBL/OXA): >64 µg/mL
- MIC (Acinetobacter baumannii; Acinetobacter baumannii CDC 274, ESBL/OXA): 16 µg/mL (≈ 27.3 µM)
- MIC (Acinetobacter baumannii; Acinetobacter baumannii CDC 275, ESBL/OXA): >64 µg/mL
- MIC (Acinetobacter baumannii; Acinetobacter baumannii CDC 277, ESBL/OXA): 16 µg/mL (≈ 27.3 µM)
- MIC (Acinetobacter baumannii; Acinetobacter baumannii CDC 307, OXA): >64 µg/mL
- MIC (Acinetobacter baumannii; Acinetobacter baumannii CDC 308, ESBL/OXA): >64 µg/mL
- MIC (Acinetobacter baumannii; Acinetobacter baumannii CDC 311, OXA): >64 µg/mL
- MIC (Acinetobacter baumannii; Acinetobacter baumannii CDC 312, OXA): 1 µg/mL (≈ 1.71 µM)
- MIC (Acinetobacter baumannii; Acinetobacter baumannii CDC 313, ESBL/OXA): 4 µg/mL (≈ 6.83 µM)
- MIC (Acinetobacter baumannii; Acinetobacter baumannii NCTC 13304, OXA): 0.5 µg/mL (≈ 0.854 µM)
- MIC (P. aeruginosa [6]; P. aeruginosa isolate 103 (ATCC 25922), QC strain, initial MIC testing): 2 µg/mL (≈ 3.42 µM)
- MIC (P. aeruginosa [6]; P. aeruginosa isolate 103 (ATCC 25922), during FIC testing, each agent tested alone for QC, one replicate): 4 µg/mL
- MIC (P. aeruginosa [6]; P. aeruginosa isolate 1497 (TOB-R, AMK-R, CIP-I, AZT-R, COL-R), initial MIC testing): 64 µg/mL (≈ 109 µM)
- MIC (P. aeruginosa [6]; P. aeruginosa isolate 1530 (TOB-R, AMK-R, CIP-R), initial MIC testing): 64 µg/mL (≈ 109 µM)
- MIC (P. aeruginosa [6]; P. aeruginosa isolate 1553 (TOB-R, AMK-R, CIP-R), initial MIC testing): 64 µg/mL (≈ 109 µM)
- MIC (P. aeruginosa [6]; P. aeruginosa isolate 6322 (MEM-R, TOB-R, AMK-R, CIP-R, AZT-R), initial MIC testing): 64 µg/mL (≈ 109 µM)
- MIC (P. aeruginosa [6]; P. aeruginosa isolate 6977 (MEM-I, TOB-R, CIP-R, AZT-I), initial MIC testing): 16 µg/mL (≈ 27.3 µM)
- MIC (P. aeruginosa [6]; P. aeruginosa isolate 7745 (MEM-R, CIP-R, AZT-R), initial MIC testing): 4 µg/mL (≈ 6.83 µM)
- MIC (P. aeruginosa [6]; P. aeruginosa isolate 7754 (MEM-R, TOB-R, CIP-R, AZT-I), initial MIC testing): 8 µg/mL (≈ 13.7 µM)
- MIC (P. aeruginosa [6]; P. aeruginosa isolate 7762 (MEM-I, CIP-I), initial MIC testing): 8 µg/mL (≈ 13.7 µM)
- MIC (P. aeruginosa [6]; P. aeruginosa isolate 7871 (MEM-R, AZT-I), initial MIC testing): 2 µg/mL (≈ 3.42 µM)
- MIC (P. aeruginosa [6]; P. aeruginosa isolate 7874, initial MIC testing): 2 µg/mL (≈ 3.42 µM)
- MIC (P. aeruginosa [6]; P. aeruginosa isolate 7886 (MEM-R, CIP-R, AZT-R), initial MIC testing): 8 µg/mL (≈ 13.7 µM)
- MIC (P. aeruginosa [6]; P. aeruginosa isolate 8797 (MEM-R, TOB-R, AMK-R, CIP-R, AZT-R, COL-R), initial MIC testing): >256 µg/mL
- MIC (P. aeruginosa [6]; P. aeruginosa isolate 9108 (CIP-R, AZT-I), initial MIC testing): 4 µg/mL (≈ 6.83 µM)
